The record followed here is US8957064B2, “Fused pyrimidines” (Bayer Intellectual Property GmbH, priority 2009, dated 2015).

The target in experiment [1] is His-tagged human recombinant kinase full-length Akt1 (Homo sapiens (Human), UniProt P31749). In words: Akt1 kinase assay (Akt1 TR-FRET assay, Biological Assay 1.0). The experiment is classed as biochemical. The conditions noted are these: 10 μM ATP, 1 μM biotinylated peptide substrate, 60 min at 22° C. The source says: Biological Assay 1.0: Akt1 Kinase Assay
Chain of His-tagged human recombinant kinase full-length Akt1 (P31749 whole entry): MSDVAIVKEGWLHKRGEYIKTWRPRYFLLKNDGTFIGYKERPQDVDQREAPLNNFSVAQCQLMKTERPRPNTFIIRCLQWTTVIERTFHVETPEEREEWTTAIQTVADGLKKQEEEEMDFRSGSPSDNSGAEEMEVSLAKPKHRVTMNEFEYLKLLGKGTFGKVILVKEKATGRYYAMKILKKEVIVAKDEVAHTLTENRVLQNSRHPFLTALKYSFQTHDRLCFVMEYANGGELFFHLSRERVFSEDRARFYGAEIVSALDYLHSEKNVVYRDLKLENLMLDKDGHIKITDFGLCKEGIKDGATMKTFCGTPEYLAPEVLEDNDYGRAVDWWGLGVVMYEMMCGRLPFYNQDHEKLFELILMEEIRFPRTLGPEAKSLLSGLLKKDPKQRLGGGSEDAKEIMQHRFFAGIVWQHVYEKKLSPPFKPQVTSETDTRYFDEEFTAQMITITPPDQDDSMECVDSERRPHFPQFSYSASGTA
Akt1 inhibitory activity of compounds of the present invention may be quantified employing the Akt1 TR-FRET assay as described in the following paragraphs. His-tagged human recombinant kinase full-length Akt1 expressed in insect cells was purchased form Invitrogen (part number PV 3599). As substrate for the kinase reaction the biotinylated peptide biotin-Ahx-KKLNRTLSFAEPG (C-terminus in amide form) was used which can be purchased e.g. from the company Biosynthan GmbH (Berlin-Buch, Germany).
(§1) For the assay 50 nl of a 100 fold concentrated solution of the test compound in DMSO was pipetted into a black low volume 384 well microtiter plate (Greiner Bio-One, Frickenhausen, Germany), 2 μl of a solution of Akt1 in assay buffer [50 mM TRIS/HCl pH 7.5, 5 mM MgCl2, 1 mM dithiothreitol, 0.02% (v/v) Triton X-100 (Sigma)] were added and the mixture was incubated for 15 min at 22° C. to allow prebinding of the test compounds to the enzyme before the start of the kinase reaction. Then the kinase reaction was started by the addition of 3 μl of a solution of adenosine-tri-phosphate (ATP, 16.7 μM=>final conc. in the 5 μl assay volume is 10 μM) and substrate (1.67 μM=>final conc. in the 5 μl assay volume is 1 μM) in assay buffer and the resulting mixture was incubated for a reaction time of 60 min at 22° C. The concentration of Akt1 in the assay was adjusted depending of the activity of the enzyme lot and was chosen appropriate to have the assay in the linear range, typical enzyme concentrations were in the range of about 0.05 ng/μl (final conc. in the 5 μl assay volume).
(§2) The reaction was stopped by the addition of 5 μl of a solution of HTRF detection reagents (200 nM streptavidine-XL665 [Cisbio] and 1.5 nM anti-phosho-Serine antibody [Millipore, cat. #35-001] and 0.75 nM LANCE Eu-W 1024 labeled anti-mouse IgG antibody [Perkin Elmer]) in an aqueous EDTA-solution (100 mM EDTA, 0.1% (w/v) bovine serum albumin in 50 mM HEPES/NaOH pH 7.5).
(§3) The resulting mixture was incubated 1 h at 22° C. to allow the binding of the biotinylated phosphorylated peptide to the streptavidine-XL665 and the antibodies. Subsequently the amount of phosphorylated substrate was evaluated by measurement of the resonance energy transfer from the anti-mouse-IgG-Eu-Chelate to the streptavidine-XL665. Therefore, the fluorescence emissions at 620 nm and 665 nm after excitation at 350 nm was measured in a HTRF reader, e.g. a Rubystar (BMG Labtechnologies, Offenburg, Germany) or a Viewlux (Perkin-Elmer). The ratio of the emissions at 665 nm and at […] was taken as the measure for the amount of phosphorylated substrate. The data were normalised (enzyme reaction without inhibitor=0% inhibition, all other assay components but no enzyme=100% inhibition).
On the technique in general: In TR-FRET formats the signal depends on donor and acceptor labels being close together.

Experiment [2] concerns the target His-tagged human recombinant kinase full-length Akt2 activated by PDK1 (Homo sapiens (Human), UniProt P31751). In words: Akt2 kinase assay (Akt2 TR-FRET assay, Biological Assay 2.0). The experiment is classed as biochemical. To be noted: 10 μM ATP, 1 μM biotinylated peptide substrate, 60 min at 22° C.
Source text: Biological Assay 2.0: Akt2 Kinase Assay
Akt2 inhibitory activity of compounds of the present invention was quantified employing the Akt2 TR-FRET assay as described in the following paragraphs.
His-tagged human recombinant kinase full-length Akt2 expressed in insect cells and activated by PDK1 was purchased form Invitrogen (part number PV 3975). As substrate for the kinase reaction the biotinylated peptide biotin-Ahx-KKLNRTLSFAEPG (C-terminus in amide form) was used which can be purchased e.g. from the company Biosynthan GmbH (Berlin-Buch, Germany).
as §1, with “Akt2” for “Akt1”, “0.2” for “0.05”
as §2
as §3, with “TR-FRET” for “HTRF”

pIC50: −log10 of the molar value. Some results are limits rather than exact numbers.

Chain of His-tagged human recombinant kinase full-length Akt2 activated by PDK1 (P31751 whole entry): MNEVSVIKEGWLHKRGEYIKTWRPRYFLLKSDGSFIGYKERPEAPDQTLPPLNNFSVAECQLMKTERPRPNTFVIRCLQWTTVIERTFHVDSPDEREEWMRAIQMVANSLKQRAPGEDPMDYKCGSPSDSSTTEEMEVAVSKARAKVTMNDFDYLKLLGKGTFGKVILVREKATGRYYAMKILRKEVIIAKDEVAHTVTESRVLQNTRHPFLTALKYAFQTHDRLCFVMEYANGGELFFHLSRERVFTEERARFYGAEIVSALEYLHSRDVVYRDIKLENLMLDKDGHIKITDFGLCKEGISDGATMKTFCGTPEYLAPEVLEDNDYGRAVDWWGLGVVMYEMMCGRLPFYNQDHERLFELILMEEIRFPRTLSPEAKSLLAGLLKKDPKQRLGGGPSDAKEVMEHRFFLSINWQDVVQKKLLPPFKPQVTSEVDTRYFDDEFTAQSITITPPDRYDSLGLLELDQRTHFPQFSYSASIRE

Broadly, the pIC50 is −log10 of the IC50, conventionally taken in molar units. As for `Cc1cccc(-c2nc(C3CN(Cc4ccc(-c5nc6nc(C)c(Br)n6cc5-c5ccccc5)cc4)C3)n[nH]2)n1` [Example 57.0, 3-bromo-2-methyl-7-{4-{3-[5-(6-methylpyridine-2-yl)-1H-[1,2,4]triazole-3-yl)-azetidine-1-ylmethyl]-phenyl}-6-phenyl-imidazo[1,2-a]pyrimidine], the pIC50 was 8.22 in experiment [1] and 8.52 in experiment [2].

Regarding `Cc1nc2nc(-c3ccc(CN4CCC(c5nc6ccc(C#N)cc6[nH]5)CC4)cc3)c(-c3ccccc3)cn2n1` [Example 20.0, 2-{1-[4-(2-methyl-6-phenyl-[1,2,4]triazolo[1,5-a]pyrimidin-5-yl)benzyl]-piperidin-4-yl}-3H-benzimidazole-5-carbonitrile], the values for the negative logarithm of the IC50 (pIC50) in experiment [1] and in experiment [2] were 6.28 and 6.00, respectively.

Turning to `Cc1nc2nc(-c3ccc(CN4CC(c5n[nH]c(-c6ccccn6)n5)C4)cc3)c(-c3ccccc3)cn2c1Br` [Example 26.0, 3-bromo-2-methyl-6-phenyl-7-{4-[3-(5-pyridine-2-yl-1H-[1,2,4]triazole-3-yl]-azetidine-1-ylmethyl]-phenyl}-imidazo[1,2-a]pyrimidine], the negative-log IC50 (pIC50) in experiment [1] and in experiment [2] was 8.40 throughout.

Take `CNc1c(-c2ccccc2)c(-c2ccc(CN3CC(c4n[nH]c(-c5cccc(C)n5)n4)C3)cc2)nc2nc(C)cn12` [Example 61.0, methyl-(2-methyl-7-{4-{3-[5-(6-methylpyridine-2-yl)-1H-[1,2,4]triazole-3-yl)-azetidine-1-ylmethyl]-phenyl}-6-phenyl-imidazo[1,2-a]pyrimidin-5-yl)-amine]: the figures for the pIC50 in experiment [1] and in experiment [2] were 7.96 and 7.72, respectively.

Regarding `Cc1cccc(-c2nc(C3CN(Cc4ccc(-c5nc6nc(-c7ccccn7)nn6c(NC(C)C)c5-c5ccccc5)cc4)C3)n[nH]2)n1` [Example 69.0, isopropyl-(6-phenyl-2-pyridine-2-yl-5-{4-[3-[5-(6-methylpyridine-2-yl)-1H-[1,2,4]triazole-3-yl)-azetidine-1-ylmethyl]-phenyl}-[1,2,4]triazolo[1,5-a]pyrimidin-7-yl)-amine], the figures for the pIC50 in experiment [1] and in experiment [2] were 7.85 and 7.80, respectively.

Take `COC(=O)c1cnn2cc(-c3ccc(F)cc3F)c(-c3ccc(CN4CC(c5n[nH]c(-c6ccccn6)n5)C4)cc3)nc12` [Example 32.0, 6-(2,4-difluorophenyl)-5-(4-{3-[5-(pyridine-2-yl)-1H-[1,2,4]triazole-3-yl]-azetidine-1-ylmethyl}-phenyl)-pyrazolo[1,5-a]pyrimidine-3-carboxylic acid methyl ester]: the results for the negative logarithm of the IC50 (pIC50) in experiment [1] and in experiment [2] were 8.15 and 6.67, respectively.

With `Cc1cccc(-c2nc(C3CCN(Cc4ccc(-c5nc6nc(C)nn6cc5-c5cccc(F)c5)cc4)CC3)n[nH]2)n1` [Example 49.0, 6-(3-fluorophenyl)-2-methyl-5-(4-{4-[5-(6-methylpyridine-2-yl)-1H-[1,2,4]triazole-3-yl]-piperidine-1-ylmethyl}-phenyl)-[1,2,4]triazolo[1,5-a]pyrimidine], the pIC50 in experiment [1] is 7.89; in experiment [2], 7.43.

Regarding `Cc1cccc(-c2nc(C3CN(Cc4ccc(-c5nc6nc(C)nn6cc5-c5ccc(F)cc5F)cc4)C3)n[nH]2)n1` [Example 35.0, 6-(2,4-difluorophenyl)-2-methyl-5-(4-{3-[5-(6-methyl-pyridine-2-yl)-1H-[1,2,4]triazole-3-yl]-azetidine-1-ylmethyl}-phenyl)-[1,2,4]triazolo[1,5-a]pyrimidine], the negative-log IC50 (pIC50) was 7.54 in experiment [1] and 7.38 in experiment [2].

For the molecule `Cc1cccc(-c2nc(C3CN(Cc4ccc(-c5nc6nc(C)cn6c(NC(C)C)c5-c5ccccc5)cc4)C3)n[nH]2)n1` [Example 65.0, isopropyl-(2-methyl-6-phenyl-7-{4-{3-[5-(6-methylpyridine-2-yl)-1H-[1,2,4]triazole-3-yl)-azetidine-1-ylmethyl]-phenyl}-imidazo[1,2-a]pyrimidin-5-yl)-amine], the negative logarithm of the IC50 (pIC50) was 7.48 in experiment [1] and 7.44 in experiment [2].

Turning to `Cc1cccc(-c2nc(C3CN(Cc4ccc(-c5nc6nc(C)cn6cc5-c5ccccc5)cc4)C3)n[nH]2)n1` [Example 38.0, 2-methyl-7-(4-{3-[5-(6-methylpyridine-2-yl)-1H-[1,2,4]triazole-3-yl]-azetidine-1-ylmethyl}-phenyl)-6-phenyl-imidazo[1,2-a]pyrimidine], the negative logarithm of the IC50 (pIC50) in experiment [1] is 7.89; in experiment [2] it was 7.80.

With `Cc1nc2nc(-c3ccc(CN4CCC(c5nc6ccc(C(F)(F)F)cc6[nH]5)CC4)cc3)c(-c3ccccc3)cn2n1` [Example 21.0, 2-methyl-6-phenyl-5-{4-[4-(6-trifluoromethyl-1H-benzimidazol-2-yl)-piperidin-1-ylmethyl]-phenyl}-[1,2,4]-triazolo[1,5-a]pyrimidine], the values for the negative logarithm of the IC50 (pIC50) in experiment [1] and in experiment [2] were 5.84 and 5.60, respectively.

With `Cc1nc2nc(-c3ccc(CN4CCC(c5n[nH]c(-c6ccccn6)n5)CC4)cc3)c(-c3cc(F)ccc3F)cn2n1` [Example 76.0, 6-(2,5-difluorophenyl)-2-methyl-5-{4-[4-(5-pyridine-2-yl-1H-[1,2,4]triazole-3-yl)-piperidine-1-ylmethyl]-phenyl}-[1,2,4]triazolo[1,5-a]pyrimidine], the pIC50 is 7.22 in experiment [1] and 6.81 in experiment [2].

As to `c1ccc(-c2cn3ccnc3nc2-c2ccc(CN3CC(c4nnc(-c5ccccn5)[nH]4)C3)cc2)cc1` [Example 1.0, 6-phenyl-7-(4-{[3-(5-pyridin-2-yl-1,2,4-triazol-3-yl)azetidin-1-yl]methyl}phenyl)imidazo[1,2-a]pyrimidine], the negative-log IC50 (pIC50) is greater than 7.30 in experiment [1] and greater than 6.30 in experiment [2].

Regarding `Fc1ccc(-c2cn3ccnc3nc2-c2ccc(CN3CCC(c4n[nH]c(-c5cnccn5)n4)CC3)cc2)cc1` [Example 52.2, 6-(4-fluorophenyl)-7-{4-[4-(5-pyrazine-2-yl-1H-[1,2,4]triazole-3-yl]-piperidine-1-ylmethyl]-phenyl}-imidazo[1,2-a]pyrimidine], the figures for the pIC50 in experiment [1] and in experiment [2] were 6.73 and 5.84, respectively.

On to `CSc1nc2nc(-c3ccc(CN4CCC(c5n[nH]c(-c6cnccn6)n5)CC4)cc3)c(-c3ccccc3)cn2n1` [Example 72.3, 2-methylsulfanyl-6-phenyl-5-{4-[4-(5-pyrazin-2-yl-1H-[1,2,4]triazol-3-yl)-piperidin-1-ylmethyl]-phenyl}-[1,2,4]triazolo[1,5-a]pyrimidine], for which the pIC50 in experiment [1] is 7.59; in experiment [2], 7.10.
